For 16 molecules, IC50 and Kd results are on record in patent US9751861B2, “N1-(3,3,3-trifluoro-2-hydroxo-2-methylpropionyl)-piperidine derivatives as inhibitors of pyruvate dehydrogenase kinase” (MERCK PATENT GMBH, priority 2013, dated 2017).

SMILES strings stand for the structures.

One test has as its target T1, PDHK2 (Homo sapiens, UniProt Q15119).
T1 construct: purchased Carna Bioscience
Kind of test: Biochemical activity testing of PDHK2: PDC inactivation assay. Particulars: human rec PDHK2, PDC from porcine heart, ATP 5 μM; read-out: IC50 PDHK2 (enzyme assay). An excerpt: Biochemical Activity Testing of PDHK2: PDC Inactivation Assay
The biochemical activity assay for PDHK2 is based on the inactivation of PDC through phosphorylation by PDHK2. The assay is run in two steps: the enzymatic PDHK2 reaction in which isolated PDC is phosphorylated by PDHK2 with ATP as co-substrate and the PDC activity assay in which pyruvate and NAD are converted to acetyl-CoA and NADH. The PDC activity correlates to the increase in NADH and thereby is detectable directly via the increasing fluorescence signal (Exc 340 nm, Em 450 nm). Inhibition of PDHK2 results in a lower phosphorylation status and thereby a less decrease in activity of PDC and a stronger increase in NADH fluorescence signal.
The PDC inactivation assay is performed in Greiner 384-well microtiter plates and is used for high throughput screen. 4 μl of PDHK2 (human, rec, Carna Bioscience, 10 ng/μl-137 nM final concentration) and PDC (isolated from porcine heart, Sigma-Aldrich, 20 mU/ml final concentration) are incubated in the absence or presence of the test compound (10 dilution concentrations) for 30 min at room temperature in kinase buffer (15 mM potassium phosphate buffer, pH 7.0, 60 mM KCl, 1.5 mM DTT, 2.5 mM MgCl2, 0.0125% (w/v) BSA, 0.125% Pluronic F-68). The kinase reaction is started by the addition of 4 μl ATP substrate solution (fc 5 μM in kinase buffer). After 30 min incubation at 37° C. 40 μl of PDC reaction solution (100 mM Tris/HCl, pH 7.8, 0.5 mM EDTA, 1 mM MgCl2, 50 mM NaF, 0.25 mM Coenzyme A, 5 mM pyruvate, 1 mM NAD, 5 mM DTT, […] thiamine pyrophosphate) is added. The first fluorescence measurement is performed on a Perkin Elmer Envision (Exc 340 nm, Em 450 nm). The reaction is incubated for 45 min at room temperature. Afterwards a second fluorescence measurement is performed and the PDC activity is calculated by the difference between both measurements. As full value for the PDHK2 assay the inhibitor-free PDHK2 reaction is used. The pharmacological zero value used is DCA (Sigma-Aldrich) in a final concentration of 3 mM. The inhibitory values (IC50) were determined using either the program Symyx Assay Explorer® or Condosseo® from GeneData.

In another test the target is T2, human PDHK2 (12-407) (Homo sapiens, UniProt Q15119).
T2 construct: The human PDHK2 (12-407) was produced in E. coli; His-tag (cleaved yes); made in house; host or cells: E. coli
The test can be described thus: Isothermal titration calorimetry (ITC) binding. Particulars: 30° C., pH 7.5. The method, then:
Isothermal Titration Calorimetry
ITC measurements were performed with a VP-ITC micro calorimeter (Microcal, LLC/GE Healthcare Bio-Sciences AB, Uppsala, Sweden). In general titrations were performed by titrating the protein (50 μM) to the test compound (5 μM) in 12 μl injections. All binding experiments were carried out at 30° C. In general the test compounds were diluted form DMSO stock solutions into the measurement buffer with a maximum final concentration of 1% DMSO. The measurement buffer was 20 mM HEPES, 135 mM KCl, 1 mM TCEP, 2 mM MgCl2, 15 mM NaH2PO4, pH 7.5. The human PDHK2 (12-407) was produced in E. coli as his-tagged protein and purified by affinity chromatography. The tag was removed by side specific proteolysis. Before titration the protein buffer was changed to the measurement buffer containing the same DMSO concentration as the test compound dilution. ITC data analysis was performed using Origin 7 calorimetry software from the same supplier. For most measurements a binding model of one binding site was assumed. According to the applied mathematical model it is possible to calculate the binding constant (KA), the observed binding enthalpy (ΔH^obs) as well as the stoichiometry (N) of the formed complex. Preceding analysis the raw data was corrected for the heats of dilution by extrapolating from the saturation value from the end of titration. In order to allow for direct comparison between the respective experimental series and protein preparations the protein concentration was corrected by referencing titrations to a well behaved standard inhibitor. The apparent stoichiometry values defined the fraction of binding competent protein and compensated for relative errors in protein concentration measurements. This corrected protein concentration was used to set up ITC experiment series with test compounds. Any deviations from ideal 1:1 stoichiometry observed here were attributed to errors in compound concentration. This nominal compound concentration was corrected as well to achieve 1:1 stoichiometry in the fit.
A general note: In ITC the heat of successive injections is recorded.

A further test concerns PDH-Elalpha (pSer300). The test can be described thus: Cellular immunofluorescence assay in HEK293T cells. The test is classed as cell-based. The settings on record: Homo sapiens, HEK-293T, 5 hours incubation, anti-PDH-E1alpha pSer300 immunofluorescence, read-out: IC50 (cell data). The method, then: Cellular Assay for Determination of Compound Activities
Compound activities were determined in a cellular immunofluorescence assay. Human HEK293T cells were seeded into black 384-well plates with clear bottom and grown overnight.
Next day, test compounds were added to the wells and the plates incubated for 5 hours. Following this, cells were fixed with formaldehyde, permeabilised and blocked. The primary antibody, Anti-PDH-Elalpha (pSer300), AP1064 (Merck Millipore) was added and incubated overnight in the plate wells. Next, cells were washed and the seconday antibody, Alexa Fluor 488, goat anti-rabbit ab (A-11008, Invitrogen) was added together with Hoechst 33258 (H3569, Invitrogen) and incubated for 1 hour in the plate wells. Finally, cells were washed and the plates were measured on the laser scanning cytometer acumen hci (TTpLabtech).
The raw data were normalized against a pharmacological inhibitor control and dose response curves were generated by plotting the percent effect values using the software package Genedata screener (Genedata).

As for `C[C@@](O)(C(=O)N1CCC(c2ccnn2-c2ccc(C(F)(F)F)nc2)CC1)C(F)(F)F` [Compound A80, (R)-3,3,3-Trifluoro-2-hydroxy-2-methyl-1-[4-[2-[6-(trifluoromethyl)-3-pyridyl]-2H-pyrazol-3-yl]-1-piperidyl]propan-1-one], the IC50 on PDHK2 lay within 300 to 3000 nM; in the test with PDH-Elalpha (pSer300), 3000 to 50000 nM. The molecule further showed a Kd at human PDHK2 (12-407) of under 300 nM.

Take `COc1ccc(-n2nccc2C2CCN(C(=O)[C@@](C)(O)C(F)(F)F)CC2)cn1` [Compound A53, (R)-3,3,3-Trifluoro-2-hydroxy-1-{4-[2-(6-methoxy-pyridin-3-yl)-2H-pyrazol-3-yl]-piperidin-1-yl}-2-methyl-propan-1-one]: the IC50 at PDHK2 and in the test with PDH-Elalpha (pSer300) was 300 to 3000 nM each time. The same molecule came in with a Kd at human PDHK2 (12-407) of under 300 nM.

On to `CC(C)(C)n1nccc1C1CCN(C(=O)[C@@](C)(O)C(F)(F)F)CC1` [Compound A17, (R)-1-[4-(2-tert-Butyl-2H-pyrazol-3-yl)-piperidin-1-yl]-3,3,3-trifluoro-2-hydroxy-2-methyl-propan-1-one], for which the IC50 at PDHK2 and with PDH-Elalpha (pSer300) was 300 to 3000 nM throughout. This molecule registered a Kd at human PDHK2 (12-407) of under 300 nM.

For `C[C@@](O)(C(=O)N1CCC(c2cc(C(F)(F)F)nn2-c2ccc(Cl)cc2)CC1)C(F)(F)F` [Compound A35, (R)-1-{4-[2-(4-Chloro-phenyl)-5-trifluoromethyl-2H-pyrazol-3-yl]-piperidin-1-yl}-3,3,3-trifluoro-2-hydroxy-2-methyl-propan-1-one], the IC50 at PDHK2 is under 300 nM; in the test on PDH-Elalpha (pSer300) it was 300 to 3000 nM. In addition, at human PDHK2 (12-407), the Kd is under 300 nM.

As to `C[C@@](O)(C(=O)N1CCC(n2cnnc2-c2ccccc2F)CC1)C(F)(F)F` [Compound A55, (R)-3,3,3-Trifluoro-1-{4-[3-(2-fluoro-phenyl)-[1,2,4]triazol-4-yl]-piperidin-1-yl}-2-hydroxy-2-methyl-propan-1-one], the IC50 at PDHK2 is 300 to 3000 nM; in the test with PDH-Elalpha (pSer300) it was 3000 to 50000 nM. At human PDHK2 (12-407), this molecule registered a Kd of 300 to 3000 nM.

Turning to `C[C@@](O)(C(=O)N1CCC(c2cc(C(F)(F)F)nn2-c2ccc(F)cc2)CC1)C(F)(F)F` [Compound A42, (R)-1-{4-[2-(4-Fluoro-phenyl)-5-trifluoromethyl-2H-pyrazol-3-yl]-piperidin-1-yl}-3,3,3-trifluoro-2-hydroxy-2-methyl-propan-1-one], the IC50 on PDHK2 and in the test on PDH-Elalpha (pSer300) was 300 to 3000 nM throughout. Further, at human PDHK2 (12-407), the Kd is under 300 nM.

On to `Cc1cc(C2CCN(C(=O)[C@@](C)(O)C(F)(F)F)CC2)n(-c2ccc(F)cc2F)n1` [Compound A97, (R)-1-{4-[2-(2,4-Difluoro-phenyl)-5-methyl-2H-pyrazol-3-yl]-piperidin-1-yl}-3,3,3-trifluoro-2-hydroxy-2-methyl-propan-1-one], for which the IC50 is under 300 nM on PDHK2 and 300 to 3000 nM with PDH-Elalpha (pSer300). The Kd at human PDHK2 (12-407) is under 300 nM.

With `Cc1cc(C2CCN(C(=O)[C@@](C)(O)C(F)(F)F)CC2)n(-c2ccccc2)n1` [Compound A98, (R)-3,3,3-Trifluoro-2-hydroxy-2-methyl-1-[4-(5-methyl-2-phenyl-2H-pyrazol-3-yl)-piperidin-1-yl]-propan-1-one], the IC50 on PDHK2 was under 300 nM; in the test on PDH-Elalpha (pSer300), 300 to 3000 nM. The Kd at human PDHK2 (12-407) was under 300 nM.

As to `C[C@@](O)(C(=O)N1CCC(n2ccnc2-c2ccc(Cl)cc2)CC1)C(F)(F)F` [Compound A62, (R)-1-{4-[2-(4-Chloro-phenyl)-imidazol-1-yl]-piperidin-1-yl}-3,3,3-trifluoro-2-hydroxy-2-methyl-propan-1-one], the IC50 was under 300 nM on PDHK2 and 300 to 3000 nM with PDH-Elalpha (pSer300). The same molecule displayed a Kd at human PDHK2 (12-407) of under 300 nM.

Turning to `Cc1cc(C2CCN(C(=O)[C@@](C)(O)C(F)(F)F)CC2)n(-c2ccc(F)cc2)n1` [Compound A41, (R)-1-{4-[2-(4-Fluoro-phenyl)-5-methyl-2H-pyrazol-3-yl]-piperidin-1-yl}-3,3,3-trifluoro-2-hydroxy-2-methyl-propan-1-one], the IC50 at PDHK2 is under 300 nM; with PDH-Elalpha (pSer300), 300 to 3000 nM. In addition, the Kd on human PDHK2 (12-407) was under 300 nM.

Consider `Cc1ccc(-n2nccc2C2CCN(C(=O)[C@@](C)(O)C(F)(F)F)CC2)nc1` [Compound A83, (R)-3,3,3-Trifluoro-2-hydroxy-2-methyl-1-{4-[2-(5-methyl-pyridin-2-yl)-2H-pyrazol-3-yl]-piperidin-1-yl}-propan-1-one], for which the IC50 at PDHK2 and with PDH-Elalpha (pSer300) was 300 to 3000 nM throughout. Further, the Kd at human PDHK2 (12-407) is under 300 nM.

For the molecule `Cn1cc(-n2nccc2C2CCN(C(=O)[C@@](C)(O)C(F)(F)F)CC2)cn1` [Compound A85, (R)-3,3,3-Trifluoro-2-hydroxy-2-methyl-1-[4-[2-(1-methylpyrazol-4-yl)-2H-pyrazol-3-yl]-1-piperidyl]propan-1-one], the IC50 fell in the range of 300 to 3000 nM on PDHK2 and 3000 to 50000 nM in the test with PDH-Elalpha (pSer300). This molecule came in with a Kd at human PDHK2 (12-407) of under 300 nM.

For the molecule `C[C@@](O)(C(=O)N1CCC(c2ccnn2-c2ccc(C#N)cc2F)CC1)C(F)(F)F` [Compound A91, 3-Fluoro-4-[5-[1-[(R)-3,3,3-trifuoro-2-hydroxy-2-methyl-propanoyl]-4-piperidyl]-2H-pyrazol-1-yl]benzonitrile], the IC50 at PDHK2 fell in the range of 300 to 3000 nM; in the test with PDH-Elalpha (pSer300), 3000 to 50000 nM. This molecule also returned a Kd at human PDHK2 (12-407) of under 300 nM.

`C[C@@](O)(C(=O)N1CCC(n2cncc2-c2ccccc2)CC1)C(F)(F)F` [Compound A63, (2R)-3,3,3-trifluoro-2-hydroxy-2-methyl-1-[4-(5-phenylimidazol-1-yl)-1-piperidyl]propan-1-one]: the figures for the IC50 on PDHK2 and in the test on PDH-Elalpha (pSer300) were 300 to 3000 nM and 3000 to 50000 nM, respectively. Also, the Kd at human PDHK2 (12-407) is under 300 nM.

With `C[C@@](O)(C(=O)N1CCC(c2ccnn2-c2ccc(Cl)c(Cl)c2)CC1)C(F)(F)F` [Compound A101, (R)-1-{4-[2-(3,4-Dichloro-phenyl)-2H-pyrazol-3-yl]-piperidin-1-yl}-3,3,3-trifluoro-2-hydroxy-2-methyl-propan-1-one], the IC50 at PDHK2 and in the test with PDH-Elalpha (pSer300) was 300 to 3000 nM throughout. Further, the Kd on human PDHK2 (12-407) was under 300 nM.

On to `C[C@@](O)(C(=O)N1CCC(c2ccnn2-c2ccc(C(F)(F)F)cc2F)CC1)C(F)(F)F` [Compound A88, (R)-3,3,3-Trifluoro-1-[4-[2-[2-fluoro-4-(trifluoromethyl)phenyl]-2H-pyrazol-3-yl]-1-piperidyl]-2-hydroxy-2-methyl-propan-1-one], for which the IC50 at PDHK2 and with PDH-Elalpha (pSer300) was 300 to 3000 nM each time. Further, the Kd on human PDHK2 (12-407) was under 300 nM.

One may read the IC50 as the concentration needed to halve the response being measured. By Kd is commonly meant the constant that tells how readily two partners part at equilibrium. Lower therefore signals a tighter complex.
